The record followed here is patent US20240150370A1, “BICYCLIC PYRIDINE DERIVATIVE” (Sumitomo Pharma Co., Ltd., priority 0001, published 2024).

One data set addresses human TAAR1 receptor (Homo sapiens (Human), UniProt Q96RJ0). Description: Evaluation of agonist activity on human TAAR1 receptor (cAMP assay). To be noted: cAMP in human TAAR1-expressing CHO cells, relative to 100 μM tyramine; for activation at 0.1 µM / activation at 1 µM / activation at 10 µM: CHO, 0.5 h, read-out: TAAR1 agonist activity at each concentration (%); for TAAR1 agonist activity at each concentration (%): dihydrochloride. The format is cell-based. (In general: Cyclic AMP is a second messenger, typically raised through Gs and lowered through Gi signalling.)

Another data set concerns the target hERG channel (Homo sapiens (Human), UniProt Q12809). Description: Evaluation of hERG channel inhibitory activity (whole-cell patch clamp, hERG-CHO cells). The format is cell-based. As to conditions: autopatch clamp, read-out: hERG inhibition IC50. On the technique in general: The hERG channel carries a current that helps repolarise heart muscle cells.

Structures are written as SMILES. Where a name gives a salt, the structure may show the parent alone.

Chain of human TAAR1 receptor (Q96RJ0 whole entry, the tested form may be a part): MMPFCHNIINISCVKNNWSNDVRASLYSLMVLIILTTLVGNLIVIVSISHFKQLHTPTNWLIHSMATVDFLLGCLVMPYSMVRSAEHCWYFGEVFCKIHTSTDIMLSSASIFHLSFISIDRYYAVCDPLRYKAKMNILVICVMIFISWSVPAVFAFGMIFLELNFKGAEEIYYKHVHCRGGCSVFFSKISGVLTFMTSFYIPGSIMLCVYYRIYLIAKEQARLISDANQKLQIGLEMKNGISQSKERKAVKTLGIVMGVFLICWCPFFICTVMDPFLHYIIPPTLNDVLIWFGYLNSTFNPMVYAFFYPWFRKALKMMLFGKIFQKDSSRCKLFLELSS
Chain of hERG channel (Q12809 whole entry): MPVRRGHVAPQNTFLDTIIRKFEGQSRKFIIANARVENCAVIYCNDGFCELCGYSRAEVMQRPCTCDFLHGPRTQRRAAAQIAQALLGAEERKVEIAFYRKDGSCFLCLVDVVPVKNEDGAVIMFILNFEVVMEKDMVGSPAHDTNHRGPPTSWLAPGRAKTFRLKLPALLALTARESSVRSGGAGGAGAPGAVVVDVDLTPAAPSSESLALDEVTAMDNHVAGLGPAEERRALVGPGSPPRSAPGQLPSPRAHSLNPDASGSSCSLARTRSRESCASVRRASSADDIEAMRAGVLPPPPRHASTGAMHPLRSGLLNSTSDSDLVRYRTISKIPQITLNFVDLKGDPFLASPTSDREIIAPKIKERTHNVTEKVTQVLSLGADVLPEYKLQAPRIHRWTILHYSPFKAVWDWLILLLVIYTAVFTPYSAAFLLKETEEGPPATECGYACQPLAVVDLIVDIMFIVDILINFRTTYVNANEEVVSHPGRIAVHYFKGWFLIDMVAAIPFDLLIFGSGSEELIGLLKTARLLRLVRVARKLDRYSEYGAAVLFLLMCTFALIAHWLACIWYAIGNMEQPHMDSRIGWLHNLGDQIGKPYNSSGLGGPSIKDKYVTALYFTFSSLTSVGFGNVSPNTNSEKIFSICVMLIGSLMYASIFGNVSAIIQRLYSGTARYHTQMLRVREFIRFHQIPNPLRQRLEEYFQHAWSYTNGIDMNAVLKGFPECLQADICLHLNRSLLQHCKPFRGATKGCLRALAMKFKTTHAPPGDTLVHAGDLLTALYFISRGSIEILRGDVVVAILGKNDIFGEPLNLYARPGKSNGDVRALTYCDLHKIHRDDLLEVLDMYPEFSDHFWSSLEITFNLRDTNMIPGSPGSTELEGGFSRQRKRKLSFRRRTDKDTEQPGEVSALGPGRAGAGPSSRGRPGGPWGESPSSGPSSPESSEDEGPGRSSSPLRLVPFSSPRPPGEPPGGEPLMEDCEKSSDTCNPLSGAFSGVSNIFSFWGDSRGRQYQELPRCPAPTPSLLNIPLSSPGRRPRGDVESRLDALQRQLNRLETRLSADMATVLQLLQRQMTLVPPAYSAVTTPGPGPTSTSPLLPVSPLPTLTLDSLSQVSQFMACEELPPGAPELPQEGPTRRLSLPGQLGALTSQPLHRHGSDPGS

As for `C[C@H]1Oc2ccc(F)nc2[C@@H]1CN` [Example 29], the activation at 0.1 µM on human TAAR1 receptor (100 nM) is 51%. Besides, the activation at 1 µM at human TAAR1 receptor (1000 nM) came out at 93%. Besides, the activation at 10 µM on human TAAR1 receptor (10000 nM) turned out to be 104%. The IC50 (as a rule, the concentration that gives 50% inhibition) on hERG channel was > 100 µM.
`CNC[C@H]1c2ncccc2O[C@@H]1C` [Example 46, N-methyl-1-[(2R,3S)-2-methyl-2,3-dihydrofuro[3,2-b]pyridin-3-yl]methanamine dihydrochloride]: the activation at 0.1 µM at human TAAR1 receptor (100 nM) is 31%. Also, on human TAAR1 receptor (1000 nM), the activation at 1 µM came out at 70%. In addition, the activation at 10 µM at human TAAR1 receptor (10000 nM) was found to be 80%. In addition, the IC50 at hERG channel is > 100 µM.
With `C[C@@H]1COc2cccnc2[C@@H]1CN` (stereo in doubt) [Example 2, rac-1-[(3S,4S)-3-methyl-3,4-dihydro-2H-pyrano[3,2-b]pyridin-4-yl]methanamine dihydrochloride], the activation at 0.1 µM at human TAAR1 receptor (100 nM) worked out at 7%. For the same compound, the activation at 1 µM on human TAAR1 receptor (1000 nM) amounted to 37%. Also, at human TAAR1 receptor (10000 nM), the activation at 10 µM is 75%. The IC50 at hERG channel was > 100 µM.
For the compound `C[C@H]1Oc2ccc(Cl)nc2[C@@H]1CN` [Example 38, 1-[(2R,3S)-5-chloro-2-methyl-2,3-dihydrofuro[3,2-b]pyridin-3-yl]methanamine dihydrochloride], at human TAAR1 receptor (100 nM), the activation at 0.1 µM is 52%. Further, the activation at 1 µM at human TAAR1 receptor (1000 nM) turned out to be 86%. Moreover, at human TAAR1 receptor (10000 nM), the activation at 10 µM came to 93%. Also, at hERG channel, the IC50 is > 100 µM.
For `NC[C@@H]1C[C@@H](c2ccccc2)Oc2cccnc21` (racemic) [Example 25], in that order: 2%, 21%, 63% and 5.8 µM.
Consider `CNC[C@H]1c2nc(C)ccc2O[C@@H]1C` [Example 48], for which, at human TAAR1 receptor (100 nM), the activation at 0.1 µM amounted to 38%. For the same compound, the activation at 1 µM at human TAAR1 receptor (1000 nM) was 74%. Also, the activation at 10 µM at human TAAR1 receptor (10000 nM) amounted to 86%. Further, the IC50 at hERG channel was > 100 µM.
With `CNC[C@@H]1C[C@@H](C)Oc2cccnc21` [Example 5, N-methyl-1-[(2R,4S)-2-methyl-3,4-dihydro-2H-pyrano[3,2-b]pyridin-4-yl]methanamine dihydrochloride], the “TAAR1 agonist activity at each concentration (%)” value on human TAAR1 receptor (100 nM) was found to be 24%; at human TAAR1 receptor (1000 nM), 68%; at human TAAR1 receptor (10000 nM) it was 90%. Moreover, on hERG channel, the IC50 is > 100 µM.
In the case of `NCC1c2ncccc2OC12CC2` (stereo not shown) [Example 58], the activation at 0.1 µM on human TAAR1 receptor (100 nM) is 36%. Besides, the activation at 1 µM on human TAAR1 receptor (1000 nM) worked out at 74%. At human TAAR1 receptor (10000 nM), the activation at 10 µM stood at 82%. Moreover, the IC50 at hERG channel was > 100 µM.
As for `CC[C@@H]1Oc2cccnc2[C@H]1CN` (stereo in doubt) [Example 44, rel-1-[(2S,3R)-2-ethyl-2,3-dihydrofuro[3,2-b]pyridin-3-yl]methanamine dihydrochloride], the activation at 0.1 µM on human TAAR1 receptor (100 nM) was 13%. Further, at human TAAR1 receptor (1000 nM), the activation at 1 µM was found to be 48%. At human TAAR1 receptor (10000 nM), the activation at 10 µM came out at 79%. Besides, the IC50 on hERG channel was > 100 µM.
Taken in the same sequence, the figures for `CNC[C@@H]1C[C@@H](C)Oc2ccc(C)nc21` [Example 47] were 13%, 52%, 84% and > 100 µM.
